# Data taken from US5264207A, “Products for cutaneous applications with cosmetic and/or therapeutic effects” (EXSYMOL S.A.M., priority 1989, dated 1993).
# Tests used:
# [1] = time of release/action of active substances after application to the skin; format: in vivo; conditions: for time of release on application to the skin: Example 4, product as it is or mixed with cosmetic cream, gel or lotion
# Method: The microspheres are constituted by a copolymer of 2 moles of styrene with 2 moles of butadiene and 1 mole of 2-aminoethanol methacrylate. They are prepared in the known manner, in aqueous dispersion with Na dodecylsulfate as a surfactant and K persulfate as a catalyst. After polymerization, the microspheres are neutralized, purified by aqueous dialysis and passed over an ion-exchange resin.
# 0.09 g of pyrrolidone carboxylic acid, which binds to the methacrylate --NH2 group forming a covalent amide bond, is added to 100 ml of suspension of 4 g of these microspheres numbering […] (average size 96 nm). Another purification is then carried out and 6.1 g of dimethyl silanol hyaluronate, the same as in example 1, are added to the suspension and adsorbed.
# The resulting suspension of 106.1 g thus contains 0.09 g of pyrrolidone carboxylic acid and 0.28 g of the Si contained in dimethyl silanol hyaluronate. Application to the skin of the product as it is, or mixed with a cosmetic cream, gel or lotion leads to release of the pyrrolidone compound in 2 to 5 hours and release of the hyaluronate compound in 10 to 17 hours. A synergetic effect of the two active substances is also observed for 2 to 5 hours, followed by a longer period of hyaluronate action only.
# The microspheres prepared in the known manner, described at the beginning of example 4, consist of a copolymer of 4 moles of styrene with 1 mole of acrylic acid.
# (A)-100 g of an aqueous suspension of 5 g of microspheres are reacted with 0.126 g of theophylline, which binds to the acryl groups.
# (B)-The microspheres are then given functional groups using diamine hexamethylene, after which they are treated with a 40 g/kg elastin aqueous solution. 0.3 g of elastin polypeptides thus bind to the copolymer.
# (C)-The product obtained is purified and made to adsorb Ruscus Aculeatus glucosides, from an aqueous extract of this plant (Ruscus 1=33).
# [2] = adsorption (charging) of active substance onto copolymer microspheres/nanospheres; format: physicochemical; conditions: 60% styrene / 40% methyl methacrylate copolymer, average 95 nm; room temperature, 48 hours
# [3] = Method: 100 g of an aqueous suspension of 5 g of nanospheres having a diameter of about 70 to 130 nm (average 100 nm) are prepared by the copolymerization of an emulsion of 4 moles of styrene and 1 mole of acrylic acid, according to the technique described in example 2. 0.126 g of theophylline, which binds to the acrylic acid groups of the copolymer by an electronic-type chemical interaction, is added to these 100 g.
# A liquid product (a-b) composed of two sets of copolymer/active substance nanospheres is thus obtained:
# The liquid (a-b) is submitted to tests on an experimental model, reproducing diffusion phenomena in the skin.
# The proportions of each of the active substances which may have been in contact with the skin in 3 hours is thus determined.
# Given below are the percentages of the initial amount of each of these active substances which, according to the tests mentioned hereinabove, may have been diffused into the skin from the liquid studied:
# They thus contained no --COOH groups likely to react with the --NH groups of theophylline. […]
# As above, the amount of active principal available to the skin in 3 hours was determined. […]
# The proportion of theophylline which is available to the skin in 3 hours and in 5 hours is then determined from 100 g of an aqueous suspension of 5 g of nanosphere charged as described above. […]
Molecule,time of release on application to the skin [1],microspheres are charged with dimethylsilanediol hyaluronate [2],"amount available to the skin, tempering ratio without : with nanospheres [3]",amount of active principal available to the skin in 3 hours [3],time of action after application ([1]; in vivo)
O=C1CC[C@@H](C(=O)O)N1 [pyrrolidone carboxylic acid],2 to 5 h,,,,
dimethylsilanediol hyaluronate,10 to 17 h,30%,,,
Cn1c(=O)c2[nH]cnc2n(C)c1=O [theophylline],,,2.5 times,20%,2 to 8 h
